# ChEMBL document CHEMBL4673352, “Discovery of AZD4573, a Potent and Selective Inhibitor of CDK9 That Enables Short Duration of Target Engagement for the Treatment of Hematological Malignancies” (J Med Chem, 2020)
# pEC50, pIC50: −log10 of the molar value.
# Key:
# [1] = Intrinsic clearance in rat cryopreserved hepatocytes assessed per million cells […]; format: ADME, cell-based, Hepatocyte; conditions: for hepatocyte CLint: cryopreserved hepatocytes, read-out: CLH
# [2] = molecular target: T1, Cyclin-dependent kinase 9 (Homo sapiens, UniProt P50750); experiment: Inhibition of CDK9 in human MV4-11 cells assessed as induction of caspase-3/7 activation measured after 6 hrs followed by Caspase-glo reagent based assay; format: cell-based
# T1 sequence (P50750 whole entry): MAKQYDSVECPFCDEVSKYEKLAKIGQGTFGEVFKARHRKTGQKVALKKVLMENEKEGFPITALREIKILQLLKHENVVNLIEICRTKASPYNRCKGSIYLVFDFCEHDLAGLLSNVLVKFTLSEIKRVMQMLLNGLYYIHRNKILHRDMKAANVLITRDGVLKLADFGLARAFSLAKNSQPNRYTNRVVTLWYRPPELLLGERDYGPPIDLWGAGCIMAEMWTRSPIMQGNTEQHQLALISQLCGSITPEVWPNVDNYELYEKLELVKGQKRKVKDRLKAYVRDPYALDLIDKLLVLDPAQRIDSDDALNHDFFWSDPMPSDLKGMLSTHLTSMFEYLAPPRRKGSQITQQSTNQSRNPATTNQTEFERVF
# [3] = Solubility of compound in phosphate buffer at pH 7.4 using dried form of sample; format: physicochemical
# [4] = molecular target: T1, Cyclin-dependent kinase 9; experiment: Inhibition of CDK9 in human MCF7 cells assessed as reduction in RNA Polymerase 2 CTD phosphorylation at Ser2 residues measured after 6 hrs by immunofluorescence assay; format: cell-based
# [5] = Intrinsic clearance in human liver microsome; format: ADME, microsomes; conditions: for microsomal CLint: liver microsomes, read-out: CLH
# [6] = Lipophilicity, log D of compound in buffer/octanol at pH 7.4 by shake flask method; format: physicochemical
# CDK9/cyclin T1 = CDK9/cyclin T1 (Homo sapiens, UniProt P50750); experiment: Inhibition of recombinant full length human N-terminal GST-fused CDK9 (1 to 372 residues)/His-tagged CyclinT1 (1 to 726 residues) expressed in baculovirus infected insect cells using FITC-X-GSRTPMY-NH2 as substrate preincubated for 10 mins followed by MgCl2 addition and measured after 90 mins in presence of 5 mM ATP by mobility shift assay
# CDK9/cyclin T1, sequence (O60563 whole entry, the tested form may be a part): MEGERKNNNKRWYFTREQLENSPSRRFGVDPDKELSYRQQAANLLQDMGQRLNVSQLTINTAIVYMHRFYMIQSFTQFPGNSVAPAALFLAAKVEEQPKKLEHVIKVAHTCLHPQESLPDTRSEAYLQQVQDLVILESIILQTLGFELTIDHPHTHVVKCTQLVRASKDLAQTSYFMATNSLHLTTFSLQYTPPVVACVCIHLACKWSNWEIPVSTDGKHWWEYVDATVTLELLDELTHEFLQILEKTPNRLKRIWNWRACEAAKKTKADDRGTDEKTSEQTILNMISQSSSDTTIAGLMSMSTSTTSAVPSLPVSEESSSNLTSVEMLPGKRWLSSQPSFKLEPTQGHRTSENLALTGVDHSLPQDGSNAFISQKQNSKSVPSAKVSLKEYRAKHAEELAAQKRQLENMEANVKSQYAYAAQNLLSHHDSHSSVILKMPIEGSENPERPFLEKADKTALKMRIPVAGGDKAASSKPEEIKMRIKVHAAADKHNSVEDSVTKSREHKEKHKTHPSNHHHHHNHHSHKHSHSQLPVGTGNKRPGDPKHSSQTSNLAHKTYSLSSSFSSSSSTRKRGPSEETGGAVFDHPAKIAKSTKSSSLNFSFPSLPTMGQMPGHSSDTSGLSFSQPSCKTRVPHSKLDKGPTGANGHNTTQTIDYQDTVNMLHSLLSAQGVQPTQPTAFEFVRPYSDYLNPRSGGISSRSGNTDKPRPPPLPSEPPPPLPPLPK
# CDK9/cyclin T1, sequence (P50750 whole entry, the tested form may be a part): as the sequence (P50750 whole entry) above
# [7] = Intrinsic clearance in human cryopreserved hepatocytes assessed per million cells […]; format: ADME, cell-based, Hepatocyte; conditions: read-out: CLH
# [8] = Drug level in human liver microsomes treated with (1S,3R)-3-Acetamido-N-(5-chloro-4-(4,5,6,7-tetrahydropyrazolo-[1,5-a]pyridin-3-yl)pyridin-2-yl)cyclohexanecarboxamide at 10 uM measured after 1 hr in presence of NADPH by LC-UV-MS analysis; format: ADME, Microsome
# [9] = Drug level in human hepatocytes treated with (1S,3R)-3-Acetamido-N-(5-chloro-4-(4,5,6,7-tetrahydropyrazolo-[1,5-a]pyridin-3-yl)pyridin-2-yl)cyclohexanecarboxamide; format: ADME, cell-based, Hepatocyte
# [10] = phosphate buffer, read-out: solubility
hepatocyte CLint [1] [µL/min/1e6 cells],pEC50 [2],"solubility [3, 10] [µM]",pIC50 [4],microsomal CLint [5] [µL/min/mg],logD [6],pIC50 (CDK9/cyclin T1),hepatocyte CLint [7] [µL/min/1e6 cells],CLH ([1]; hepatocytes) [µL/min],solubility ([3]; buffer) [µM],CLH ([5]; microsomes) [µL/min/mg],Drug uptake [8],Drug uptake [9],Structure (SMILES)
18,5.72,220,5.68,< 3,2.4,6.00,–,–,–,–,–,–,CC(=O)N[C@@H]1CCC[C@H](C(=O)Nc2cc(-c3cnn4c3COCC4)c(Cl)cn2)C1
53,–,600,–,19,3.1,–,–,–,–,–,–,–,CC(=O)N[C@@H]1CCC[C@H](C(=O)Nc2cc(-c3cnn4c3CC(C)(C)C4)c(C)cn2)C1
51,6.74,104,7.04,39,3.6,–,4.6,–,–,–,–,–,CC(=O)N[C@@H]1CCC[C@H](C(=O)Nc2cc(-c3cnn4c3CCCCC4)c(Cl)cn2)C1
–,7.11,–,7.11,–,–,7.57,–,85,159,18,–,–,CC(=O)N[C@@H]1CCC[C@H](C(=O)Nc2cc(-c3cnn4c3CC(C)C4)c(Cl)cn2)C1 (stereo in doubt; 27)
–,–,> 1000,< 5.52,–,2.2,5.28,–,–,–,–,–,–,CC(=O)N[C@@H]1CCC[C@H](C(=O)Nc2cc(-c3cnc(C)n3C)c(Cl)cn2)C1
–,–,–,< 5.64,24,–,–,< 1,–,–,–,–,–,CC(=O)N[C@@H]1CCC[C@H](C(=O)Nc2cc(-c3cn[nH]c3CC(C)(C)CO)c(Cl)cn2)C1
97,7.82,35,7.40,38,3.5,–,5.8,–,–,–,–,–,CC(=O)N[C@@H]1CC[C@H](C(=O)Nc2cc(-c3cnn4c3CC(C)(C)C4)c(Cl)cn2)C1
7.4,6.18,660,6.04,3.6,1.9,6.42,–,–,–,–,–,–,CC(=O)N[C@@H]1CCC[C@H](C(=O)Nc2cc(-c3cnc(C)n3C(C)C)ccn2)C1
10,6.25,960,6.36,3.3,2.6,6.57,< 1,–,–,–,–,–,CC(=O)N[C@@H]1CCC[C@H](C(=O)Nc2cc(-c3cnn(C)c3C)c(Cl)cn2)C1
97,7.04,–,7.44,13,3.4,7.59,–,–,79,–,–,–,CC(=O)N[C@@H]1CCC[C@H](C(=O)Nc2cc(-c3cnn4c3CC(C)C4)c(Cl)cn2)C1 (stereo in doubt; 28)
12,5.92,600,5.92,16,2.7,6.18,–,–,–,–,–,–,CC(=O)N[C@@H]1CCC[C@H](C(=O)Nc2cc(-c3cnc4n3CCCC4)c(Cl)cn2)C1
–,–,120,5.80,–,3,6.12,–,–,–,–,–,–,CC(=O)N[C@@H]1CCC[C@H](C(=O)Nc2cc(-c3cnc4ccccn34)c(Cl)cn2)C1
28,–,280,–,63,3.6,–,2.5,–,–,–,–,–,CC(=O)N[C@@H]1CCC[C@H](C(=O)Nc2cc(-c3cnc4n3CC(C)(C)C4)c(Cl)cn2)C1
7.7,6.04,870,6.10,< 3,2.1,6.66,–,–,–,–,–,–,CC(=O)N[C@@H]1CCC[C@H](C(=O)Nc2cc(-c3cnn4c3CN(C)CC4)c(Cl)cn2)C1
34,6.59,110,6.46,< 3,2.6,6.96,–,–,–,–,–,–,CC(=O)N[C@@H]1CCC[C@H](C(=O)Nc2cc(-c3cnn4c3OCCC4)c(Cl)cn2)C1
42,7.82,160,8.00,178,3.6,> 8.52,23,–,–,–,–,–,CC(=O)N[C@@H]1CCC[C@H](C(=O)Nc2cc(-c3cnn4c3CC(C)(C)CC4)c(F)cn2)C1

hepatocyte CLint [1] [µL/min/1e6 cells],pEC50 [2],"solubility [3, 10] [µM]",pIC50 [4],microsomal CLint [5] [µL/min/mg],logD [6],pIC50 (CDK9/cyclin T1),hepatocyte CLint [7] [µL/min/1e6 cells],CLH ([1]; hepatocytes) [µL/min],solubility ([3]; buffer) [µM],CLH ([5]; microsomes) [µL/min/mg],Drug uptake [8],Drug uptake [9],Structure (SMILES)
33,6.36,730,6.28,< 3,2.4,6.64,–,–,–,–,–,–,CC(=O)N[C@@H]1CCC[C@H](C(=O)Nc2cc(-c3cnn4c3CCCC4)ccn2)C1
157,7.42,15,7.36,25,3.2,–,106,–,–,–,–,–,CC1(C)Cc2c(-c3cc(NC(=O)[C@H]4C[C@@H](O)C4)ncc3Cl)cnn2C1
10,6.17,860,6.07,6.2,2.4,–,–,–,–,–,–,–,CC(=O)N[C@@H]1CCC[C@H](C(=O)Nc2cc(-c3cnn4c3NCCC4)c(Cl)cn2)C1
19,6.15,490,6.12,9.7,2.6,6.51,–,–,–,–,–,–,CC(=O)N[C@@H]1CCC[C@H](C(=O)Nc2cc(-c3cnc4n3CCC4)c(Cl)cn2)C1
–,6.82,45,6.85,–,3.6,7.21,–,–,–,–,–,–,CC(=O)N[C@@H]1CCC[C@H](C(=O)Nc2cc(-c3cnn4ccccc34)c(Cl)cn2)C1
47,6.85,380,6.82,26,3.2,–,< 1,–,–,–,–,–,CC(=O)N[C@@H]1CCC[C@H](C(=O)Nc2cc(-c3cnn4c3CC(C)(C)C4)c(C#N)cn2)C1
–,–,–,6.77,14,–,7.70,48,–,–,–,–,–,CC(=O)N[C@@H]1CCC[C@H](C(=O)Nc2cc(-c3cnn4c3CC(C)(C)C4O)c(Cl)cn2)C1 (stereo not given in full)
–,–,–,–,–,–,–,–,–,–,–,Active,Active,CC(=O)N[C@@H]1CCC[C@H](C(=O)Nc2cc(-c3cn[nH]c3CCCC(=O)O)c(Cl)cn2)C1
73,6.80,> 1000,7.00,< 3,2.9,–,–,–,–,–,–,–,CC(=O)N[C@@H]1CCC[C@H](C(=O)Nc2cc(-c3cnn4c3CCCC4)c(F)cn2)C1
–,–,530,< 5.59,–,2,5.36,–,–,–,–,–,–,CC(=O)N[C@@H]1CCC[C@H](C(=O)Nc2cc(-c3nnn4c3CCCC4)c(Cl)cn2)C1
–,–,–,6.14,18,–,–,33,–,–,–,Active,Active,CC(=O)N[C@@H]1CCC[C@H](C(=O)Nc2cc(-c3cnn4c3CCCC4O)c(Cl)cn2)C1 (stereo not given in full)
45,7.00,970,6.82,< 3,2.8,7.54,< 1,–,–,–,–,–,CC(=O)N[C@@H]1CCC[C@H](C(=O)Nc2cc(-c3cnn4c3CC(C)(C)C4)ccn2)C1
72,6.48,160,6.28,< 3,2.9,6.74,–,–,–,–,–,–,CC(=O)N[C@@H]1CCC[C@H](C(=O)Nc2cc(-c3cnn4c3CCC4)c(Cl)cn2)C1
–,–,–,< 5.70,15,–,–,2.9,–,–,–,Active,Active,CC(=O)N[C@@H]1CCC[C@H](C(=O)Nc2cc(-c3cn[nH]c3CCCCO)c(Cl)cn2)C1
35,7.41,640,7.32,29,3.1,–,4.3,–,–,–,–,–,CC(=O)N[C@@H]1CCC[C@H](C(=O)Nc2cc(-c3cnn4c3CC(C)(C)CC4)ccn2)C1
